Results reported in patent US20090105149A1, “Compounds comprising lpa” (ENKAM PHARMACEUTICALS A/S, priority 2003, published 2009).
Marks after values point to notes of the source that are not given here.

Columns and labels:
hippocampal neurons [1] = test: Neurite outgrowth, hippocampal neurons; type: cell-based, rat; details: at 0.3 μg/ml
Protocol: (§1) The cultures were subsequently immunostained for tyrosine hydroxylase. Hippocampal neurons and CGN were plated at a density of 10,000 cells/cm^2 on 8-well permanox chamber slides and incubated for 24 hours in the presence of various concentrations of FGLd. Subsequently the neurons were immunostained for GAP-43. Results from at least five independent experiments for each neuronal culture are shown as percentage ±SEM with the untreated controls set at 100%. *p<0.05, **p<0.01, ***p<0.001 when compared to the controls.
Results from at least four independent experiments are shown as percentage SEM with untreated controls set at 100%. **p<0.01 when compared to the controls.
(§2) Peptide solutions without or with inhibitors of various signal transduction pathways were added to a total volume of 300 μl/cm^2, and the slides were incubated at 37° C. After 24 hours, the neurons were fixed with 4% (v/v) formaldehyde for 20 minutes and thereafter immunostained using primary rabbit antibodies against GAP-43 and Alexa Fluor secondary goat anti-rabbit antibodies. Images of at least 200 neurons for each group in each individual experiment were obtained systematically by using computer assisted fluorescence microscopy as previously described (Rønn et al., 2000 op. cit.). Briefly, a Nikon Diaphot inverted microscope with a Nikon Plan 20× objective (Nikon, Tokyo, Japan) coupled to a video camera (Grundig Electronics, Germany) was used for recordings. The same software package as described above for the dopaminergic neurite outgrowth assay was used to process the recorded images.

[2] = test system: FGL-induced neurite outgrowth in CGN cultures; test: Effect of inhibitors of FGFR, MEK and PI3K on FGL-induced neurite outgrowth in CGN; type: cell-based, rat; details: Rattus norvegicus, 27 μg/ml FGLd, FGLd-treated control = 100%, read-out: FGLd-induced neurite outgrowth in CGN in presence of inhibitor
Protocol: CGN cultures were grown for 24 hours at a density of 10,000 cells/cm^2 on 8-well permanox slides in the presence of the FGL peptide and an inhibitor. PD98059 ([…]) was added at concentrations of 12.5, 25 and 50 μM simultaneously with 10 μg/ml FGLd; LY294002 (▴) was added at concentrations of 3.5, 7 and 10 μM simultaneously with 27 μg/ml FGLd. SU5402 (▪) was added in concentrations of 20, 40 and 80 μM simultaneously with 27 μg/ml FGLd. After the treatment cells were fixed and immunostained for GAP-43. Results from at least four independent experiments are shown as percentage ±SEM, with FGLd-treated control cultures set at 100%. The dashed line indicates the average neurite length in cultures without FGLd-treatment. *p<0.05, **p<0.01 when compared to the FGLd-treated controls.
as §2

[3] = test system: organotypic hippocampal neuronal slice cultures (OHSC); test: OGD, propidium iodide staining of OHSC; type: cell-based, rat; details: control peptide
From the text: In the present study it was investigated the effect of the FGL peptide on synaptic plasticity, neuronal function and vulnerability following oxygen and glucose deprivation (OGD) in organotypic hippocampal neuronal slice cultures (OHSC) from 7-day-old Wistar rats according to method of Stoppini et al. (1991) Neurosci Methods. 37:173-82 and primary cultures of dissociated hippocampal neurons from 1-day-old rats according to method of Maar et al. (1997) J Neurosci Res. 47:163-72. Primary cell cultures were maintained for 11-12 days and OHSC for 12-14 days prior to adding FGLd.
The primary cell cultures and OHSC were exposed to OGD for 10 and 20 minutes. Following OGD, the cultures were again supplied with oxygen and glucose and analysed at 1, 4 or 24 hour time point after introduction of OGD exposure. FGLd (or the control peptide FGLc) was added 24 hr before, immediately, or 1 hr or 24 hr after OGD. When administered prior to OGD, FGLd was removed from the medium when introducing OGD. In some cases, the slice cultures were treated with FGLd only at 4 hr after OGD. In addition, the FGFR inhibitor, SU5402 (25 μM), was added together with FGLd in some of the set-ups.
In hippocampal neuronal cultures, FM 1-43 staining was used to evaluate pre-synaptic function (described above). Cell viability in both primary cell cultures and OHSC was measured using the […] [3-(4,5-dimethylthiazol-2-yl)-2,5-diphenyltetrazolium bromide] assay according to Malich et al, (1997) Toxicology. 124:179-92. In, addition, cell viability in OHSC was measured using propidium iodide (PI) staining according to Laake et al. (1999) Brain Res Brain Res Protoc. 4:173-84.

dopaminergic neurons [4] = test: Neurite outgrowth, dopaminergic neurons; type: cell-based, rat; details: DN E14, 72 h
Protocol: as §1
After 72 hours of incubation, the neurons were fixed with 4% (v/v) formaldehyde and immunostained using a primary mouse monoclonal antibody against tyrosine hydroxylase and secondary biotinylated sheep anti-mouse antibodies followed by incubation with peroxidase conjugated streptavidin. 98 images for each experimental condition in each individual experiment were automatically recorded using a computerised microscope workstation described by Walmod et al. (2002) Toxicol Appl Pharmacol. 181:1-15. Briefly, the workstation consisted of an Eclipse TE 300 inverted microscope (Nikon, Tokyo, Japan) equipped with a motorised, movable microscope stage (LUDL Electronic Production Ltd, Hawthorne, N.Y., USA), a 10× objective and a 1100 analogue b/w CCD video camera (DFA, Denmark). A software package Prima developed at the Protein Laboratory (Copenhagen University, Denmark) was used to make a stereologically based determination of neurite length according to Rønn et al., (2000) J Neurosci Methods. 100:25-32).

[5] = test system: cerebellar granule neurons (CGN); test: Survival of CGN induced to undergo apoptosis by low KCl; details: for Neuronal Survival (% of Control): Low K+ (5 mM)
Protocol: Cerebella granular meurons (CGN) (e and f) from postnatal day 7 rats were grown at a density of 100,000 cells/cm^2 for 7 days on poly-L-lysine coated microtiter plates in the medium containing 40 mM KCl, then the medium was substituted to a 5 mM KCl containing medium supplemented with various concentrations of FGLd.
For the experiments cerebellar tissue was dissected in modified Krebs-Ringer solution kept on ice, and treated as described for the hippocampal neurons above. All cell cultures were incubated at 37° C. in a humidified atmosphere containing 5% CO2.
Primary cultures of CGN were plated at a density of 100,000 cells/cm^2 on poly-L-lysine coated 8-well permanox slides in Neurobasal-A medium (Gibco, BRL) supplemented with 2% (v/v) B27, 0.5% (v/v) glutamax, 100 U/ml penicillin, 100 μg/ml streptomycin and KCl, making the final concentration of KCl in the medium 40 mM. 24 hours after plating, cytosine-β-D-arabinofuranoside (Ara-C; Sigma-Aldrich) was added to a final concentration of 10 μM to avoid proliferation of glial cells, after which the neurons were allowed to differentiate for further six days at 37° C. Apoptotic cell death was induced by washing twice and changing the medium to Basal Medium Eagle (BME; Gibco BRL) supplemented with 1% (v/v) glutamine, 100 U/ml penicillin and 100 μg/ml streptomycin, 3.5 g D-glucose/l and 1% (v/v) sodium pyruvate (Gibco BRL) together with various concentrations of peptide. Thereby the concentration of potassium in the cultures was reduced to 5 mM KCl. Two days after induction of apoptosis, the cells were fixed with 4% formaldehyde and stained with Hoechst 33258 as described for the survival assay employing hippocampal neurons.

dopaminergic neurons [6] = test: Survival of dopaminergic neurons exposed to 6-OHDA; type: cell-based, rat; details: 10 ng/ml; 6-OHDA-treated control cells set to 100%
Protocol: Dopaminergic neurons (DN) (a and b) from day 15 rat embryos grown at a density of 150,000 cells/cm^2 for six days without or with various concentrations of peptide on 24-well cell culture plates coated with poly-D-lysine were exposed to 100 μM 6-OHDA for two hours. Medium was changed and various concentrations of FGLd were added. The neurons were grown for another 24 hours before the cultures they were fixed and immunostained for tyrosine hydroxylase.
Dopaminergic neurons were prepared from Wistar rat embryos at embryonic day 15 (Charles River, Sulzfeld, Germany or Møllegaard, Denmark). A pregnant rat was sacrificed and the uterus was taken out and kept on ice in Hank's balanced salt solution (HBSS; Gibco, BRL). The ventral part of the mesencephalon was dissected from the embryonic brains, homogenised on ice in Gey's balanced salt solution (GBSS; Gibco, BRL) supplemented with 5 g glucose/l (Sigma-Aldrich) and thereafter trypsinised. The dissociated cells were washed in the presence of DNAse 1 and soybean trypsin inhibitor (Sigma-Aldrich).
For the survival assay isolated neurons were seeded at a density of 150,000 cells/cm^2 in 24-well cell culture plates coated with poly-D-lysine as described above. The neurons were left to differentiate for six days without or with various concentrations of the FGL peptide, after which 6-OHDA was added at a concentration of 100 μM for two hours. A stock solution was prepared by dissolving 6-OHDA to a concentration of 10 mM in 0.1% (w/v) sodium metabisulfite in order to prevent oxidation. After two hours with 6-OHDA, the medium was changed to Neurobasal medium with supplements and peptide, and the cell cultures were further incubated for 24 hours, fixed and immunostained for tyrosine hydroxylase. 98 images for each experimental condition in each individual experiment were automatically recorded as described for the dopaminergic neurite outgrowth assay below.

hippocampal neurons [7] = test: Survival of hippocampal neurons exposed to Aβ25-35; type: cell-based, rat; details: 50 ng/ml; 20 μM Aβ25-35
Protocol: For the experiments dissociated hippocampal neurons were isolated from Wistar rat embryos at embryonic day 19 or newborn rats as described by Rønn et al. (1999) Nat. Biotechnol. 17:1000-5.
Briefly, hippocampus was isolated from the brain in ice cold modified Krebs Ringer solution, cleared of blood vessels, roughly homogenised by chopping and then trypsinised. The dissociated cells were washed in the presence of DNAse 1 and soybean trypsin inhibitor.
For the assay neurons were plated at a density of 40,000 cells/cm^2 on 8-well permanox slides coated with 10 μg/ml poly-L-lysine in Neurobasal medium. 15 minutes after plating, Aβ25-35 was added to a final concentration of 20 μM. The Aβ25-35 had prior to plating been dissolved in sterile deionized water to a concentration of 3 mM and incubated at 37° C. for four days according to Pigino et al. (2001) J. Neurosci. 21:834-42. This treatment induces fibrillation of the Aβ-peptide fragment, thereby increasing its neurotoxic activity. The neurons were incubated with Neurobasal medium containing the FGL peptide for 70 hours, fixed with 4% (v/v) formaldehyde, and stained with Hoechst 33258 for 25 minutes as described by Kruman et al. (1997). Images of 1000-1500 neurons were randomly recorded for each group in each experiment using computer assisted fluorescence microscopy as described for the hippocampal neurite outgrowth assay. Nuclei from dead and live neurons were counted using the software package Prima developed at the Protein Laborator, Copenhagen University, and the fraction of live neurons relative to the total number of neurons was estimated.

11-amino acids fragment of the sequence set forth in SEQ ID NO: 5: SEQ ID NO: 5 (VAENSRGKNVAKG) with two amino acids truncated from the C-terminus; from axonal-associated cell adhesion molecule (Axonal-associated cell adhesion molecule [NCBI: NP_446331]: FGFR binding motif)
maximal effect, increase in neurite length of rat hippocampal neurons (hippocampal neurons [1]): 500%

O=c1cc(N2CCOCC2)oc2c(-c3ccccc3)cccc12 [LY294002]
FGLd-induced neurite outgrowth (% of FGLd-treated control) at 3.5 µM ([2]; 3.5 μM inhibitor): 90% | FGLd-induced neurite outgrowth (% of FGLd-treated control) at 10 µM ([2]; 10 μM inhibitor): ~50%

EVYVVAENMGKSKA [FGLc]
PI staining (cell damage) after 10 minutes of OGD [3]: did not affect cell damage induced by OGD

EVYVVAENQQGKSKA (NCAM Fn III, 2 [Swiss-Prot: P13591]: FGFR binding motif) [FGLm]
Effect on Neurite Length (Percent Increase vs. Control) (dopaminergic neurons [4]; 10 μg/mL): 15% | Effect on Neurite Length (Percent Increase vs. Control) (dopaminergic neurons [4]; 50 μg/mL): 23% | Effect on Neurite Length (Percent Increase vs. Control) (dopaminergic neurons [4]; 250 μg/mL): 28% | Neuronal Survival (% of Control) ([5]; CGN (PND 3-4), 250 μg/mL): 125%* % of Control | Neuronal Survival (% of Control) ([5]; CGN (PND 7-8), 10 μg/mL): 110%* % of Control | Neuronal Survival (% of Control) ([5]; CGN (PND 7-8), 50 μg/mL): 119%* % of Control | Neuronal Survival (% of Control) ([5]; CGN (PND 7-8), 250 μg/mL): 142%* % of Control

IGF-1: insulin-like growth factor 1
rescue of CGN from low KCl-induced cell death ([5]; 50 ng/ml, 5 mM KCl): could be rescued

B1: GDNF: glia derived neurotrophic factor (protein, UniProt P39905 78-211, looked up)
Glial cell line-derived …: SPDKQMAVLPRRERNRQAAAANPENSRGKGRRGQRGKNRGCVLTAIHLNVTDLGLGYETKEELIFRYCSGSCDAAETTYDKILKNLSRNRRLVSDKVGQACCRPIAFDDDLSFLDDNLVYHILRKHSAKRCGCI
survival of dopaminergic neurons treated with 6-OHDA (dopaminergic neurons [6]): 150%

B2: BDNF: brain derived neurotrophic factor (protein, UniProt P23560 19-247, looked up)
Neurotrophic factor BDNF …: APMKEANIRGQGGLAYPGVRTHGTLESVNGPKAGSRGLTSLADTFEHVIEELLDEDQKVRPNEENNKDADLYTSRVMLSSQVPLEPPLLFLLEEYKNYLDAANMSMRVRRHSDPARRGELSVCDSISEWVTAADKKTAVDMSGGTVTVLEKVPVSKGQLKQYFYETKCNPMGYTKEGCRGIDKRHWNSQCRTTQSYVRALTMDSKKRIGWRFIRIDTSCVCTLTIKRGR
rescue of hippocampal neurons from Aβ25-35-induced cell loss (hippocampal neurons [7]): could in part be rescued
